The supplement of paper PMC5908809

Experiments:
[1] = tested on: normal NK cells expanded with K562-aAPC; test: percent inhibition of viability; higher = more inhibition; settings: 72 h, IL-2 2.5 ng/mL
Description: (§1)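 Drug sensitivity and resistance testing on K562-aAPC-expanded normal NK cells: 5 concentrations (10-fold steps over a 10,000-fold range), 72 h at 37 °C, viability by CellTiter-Glo normalised to DMSO and benzethonium chloride controls; DSS from the fitted curve.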

[2] = tested on: NK-YS (IL-2 2.5 ng/mL); test: as above; settings: 72 h
[3] = tested on: YT (IL-2 2.5 ng/mL); test: as above; settings: 72 h
[4] = tested on: normal primary NK cells, pool 3 (3 donors) (IL-2 2.5 ng/mL); test: as above; settings: 72 h
[5] = tested on: NK-92 (IL-2 2.5 ng/mL); test: as above; settings: 72 h
[6] = tested on: IMC-1 (IL-2 20 ng/mL); test: as above; settings: 72 h
[7] = tested on: normal primary NK cells, pool 1 (3 donors), resting (IL-2 0 ng/mL); test: as above; settings: 72 h
[8] = tested on: normal primary NK cells, pool 2 (3 donors) (IL-2 2.5 ng/mL); test: as above; settings: 72 h
[9] = tested on: SNK-6 (IL-2 2.5 ng/mL); test: as above; settings: 72 h
[10] = tested on: normal primary NK cells, pool 1 (3 donors) (IL-2 2.5 ng/mL); test: as above; settings: 72 h
[11] = tested on: KAI3 (IL-2 2.5 ng/mL); test: as above; settings: 72 h
[12] = tested on: DERL-7 (IL-2 2.5 ng/mL); test: as above; settings: 72 h
[13] = tested on: NKL (IL-2 2.5 ng/mL); test: as above; settings: 72 h
[14] = tested on: KHYG-1 (IL-2 2.5 ng/mL); test: as above; settings: 72 h
[15] = tested on: normal NK cells expanded with K562-aAPC; test: drug sensitivity score (DSS) (DSS units); higher = more sensitive; extreme values may be limits of the assay; settings: 72 h; IL-2 2.5 ng/mL
Description: as §1

[16] = tested on: NK-YS (IL-2 2.5 ng/mL); test: as above; settings: 72 h
[17] = tested on: YT (IL-2 2.5 ng/mL); test: as above; settings: 72 h
[18] = tested on: normal primary NK cells, pool 3 (3 donors) (IL-2 2.5 ng/mL); test: as above; settings: 72 h
[19] = tested on: NK-92 (IL-2 2.5 ng/mL); test: as above; settings: 72 h
[20] = tested on: IMC-1 (IL-2 20 ng/mL); test: as above; settings: 72 h
[21] = tested on: normal primary NK cells, pool 1 (3 donors), resting (IL-2 0 ng/mL); test: as above; settings: 72 h
[22] = tested on: normal primary NK cells, pool 2 (3 donors) (IL-2 2.5 ng/mL); test: as above; settings: 72 h
[23] = tested on: SNK-6 (IL-2 2.5 ng/mL); test: as above; settings: 72 h
[24] = tested on: normal primary NK cells, pool 1 (3 donors) (IL-2 2.5 ng/mL); test: as above; settings: 72 h
[25] = tested on: KAI3 (IL-2 2.5 ng/mL); test: as above; settings: 72 h
[26] = tested on: DERL-7 (IL-2 2.5 ng/mL); test: as above; settings: 72 h
[27] = tested on: NKL (IL-2 2.5 ng/mL); test: as above; settings: 72 h
[28] = tested on: KHYG-1 (IL-2 2.5 ng/mL); test: as above; settings: 72 h

CC(C)(C)NC(=O)[C@H]1CC[C@H]2[C@@H]3CC[C@H]4NC(=O)C=C[C@]4(C)[C@H]3CC[C@]12C [Finasteride] (max concentration tested 10000 nM)
percent inhibition of viability [%]
Settings | 1 nM | 10 nM | 100 nM | 1000 nM | 10000 nM
[1] | -10.9 | -11.1 | -5.78 | 1.82 | 14.1
[2] | -10.4 | -1.41 | -5.34 | 5.54 | 10.5
[3] | 4.41 | -7.13 | 5.2 | -3.12 | 30.2
[4] | 1.72 | -0.73 | 15.2 | -6.78 | 1.67
[5] | -2.71 | -10.9 | 0.46 | 4.24 | 44.5
[6] | -6.06 | -4.68 | -1.34 | 2.37 | 27.1
[7] | 1.92 | 14 | 3.85 | 6.98 | 20.4
[8] | -2.14 | -1.25 | 3.98 | -1.8 | 12.4
[9] | -3.02 | -28.7 | -17.3 | -25.3 | -11.3
[10] | -9.53 | 1.23 | 3.62 | -7.18 | 3.28
[11] | 2.67 | 5.19 | 10.5 | 4.13 | 28.6
[12] | 8.57 | -6.64 | 5.89 | -0.19 | 12.4
[13] | 5.94 | -9.09 | 10.7 | 13 | 34.2
[14] | -6.44 | -5.37 | 3.63 | 2.04 | 10.9

Settings | drug sensitivity score
[15] | 0.32
[16] | 0.05
[17] | 1.11
[18] | 0
[19] | 2.97
[20] | 1.45
[21] | 0.89
[22] | 0.04
[23] | 0
[24] | 0
[25] | 1.87
[26] | 0.06
[27] | 2.88
[28] | 0.04

COc1cc(CCc2cc(NC(=O)c3ccc(N4CC(C)NC(C)C4)cc3)n[nH]2)cc(OC)c1 (stereo not given) [AZD4547] (max concentration tested 1000 nM)
percent inhibition of viability [%]
Settings | 0.1 nM | 1 nM | 10 nM | 100 nM | 1000 nM
[1] | -0.43 | -4.83 | -0.59 | 0.99 | 13.7
[2] | -1.26 | -3.32 | -4.3 | -2.46 | 7.41
[3] | -1.63 | -5.24 | 0.65 | 14.1 | 7.45
[4] | -2.75 | 5.35 | 5.93 | -3.36 | 6.54
[5] | -8.61 | -19.7 | -10.4 | 1.68 | 9.5
[6] | -10.2 | -0.55 | 2.58 | 3.59 | 11.7
[7] | -1.26 | 20.1 | 12.4 | 9.93 | 10.7
[8] | -16.2 | 4.82 | 5.78 | 1.94 | 4.66
[9] | -8.3 | -5.78 | 6.93 | -1.06 | 30.7
[10] | 0.51 | 14 | 13.1 | 8.85 | 9.5
[11] | 0.83 | 0.57 | 5.8 | 15.9 | 18.7
[12] | 0.65 | 12 | 4.33 | 3.09 | 5.77
[13] | -6.59 | -3.17 | 6.86 | 22.1 | 18.6
[14] | -1.35 | -9.6 | -4.7 | -0.32 | 6.6

Settings | drug sensitivity score
[15] | 0.21
[16] | 0
[17] | 1.18
[18] | 0
[19] | 0
[20] | 0.05
[21] | 0.81
[22] | 0
[23] | 1.27
[24] | 3.07
[25] | 2.12
[26] | 0
[27] | 4.12
[28] | 0

C[C@@H]1C[C@H]2[C@@H]3CCC4=CC(=O)C=C[C@]4(C)[C@@]3(F)[C@@H](O)C[C@]2(C)[C@@]1(O)C(=O)CO [Dexamethasone] (max concentration tested 10000 nM)
percent inhibition of viability [%]
Settings | 1 nM | 10 nM | 100 nM | 1000 nM | 10000 nM
[1] | 1.98 | 35.4 | 61.5 | 68.6 | 77.8
[2] | -5.2 | -1.29 | 1.38 | 4.74 | 18.8
[3] | -0.83 | 11.3 | 22.4 | 36.4 | 45.4
[4] | -8.83 | 19.5 | 43.5 | 50.7 | 58
[5] | -14.3 | -20.1 | -19.3 | -2.77 | 5.06
[6] | -2.17 | -4.52 | -10.6 | -12.7 | -2.61
[7] | 8.34 | 65.5 | 83.1 | 84.5 | 86.9
[8] | 2.03 | 37.3 | 63.2 | 69.1 | 74.5
[9] | -0.75 | -7.56 | -4.28 | -3.37 | 8.99
[10] | 2.6 | 42 | 68.9 | 80.5 | 86.6
[11] | -8.83 | -13.5 | -3.07 | -3.87 | 31.2
[12] | -2.49 | 63.1 | 100 | 101 | 101
[13] | 12.3 | 38.1 | 57.3 | 64.1 | 67.1
[14] | -1.02 | 14.1 | 39.9 | 50.3 | 69.1

Settings | drug sensitivity score
[15] | 25.3
[16] | 1.07
[17] | 9.59
[18] | 17.3
[19] | 0
[20] | 0
[21] | 35.4
[22] | 26
[23] | 0
[24] | 28.9
[25] | 1.14
[26] | 37.9
[27] | 24.6
[28] | 15.6

Nc1ccccc1NC(=O)c1ccc(CNc2nccc(-c3cccnc3)n2)cc1 [Mocetinostat] (max concentration tested 10000 nM)
percent inhibition of viability [%]
Settings | 1 nM | 10 nM | 100 nM | 1000 nM | 10000 nM
[1] | -2.73 | -8.59 | -12.3 | 81.4 | 100
[2] | -9.56 | -10.2 | -10.2 | 71.5 | 102
[3] | -3.42 | -2.92 | 3.45 | 48.2 | 104
[4] | -0.12 | -0.69 | 5.62 | 57.3 | 94.5
[5] | -18.8 | -10.3 | 8.7 | 99.6 | 105
[6] | -6.53 | -6.19 | 4.71 | 98.2 | 101
[7] | 6.94 | 10 | 2.89 | 76.2 | 88.4
[8] | -2.61 | -1 | -6.41 | 66.8 | 94.1
[9] | -6.1 | -9.13 | 11.2 | 96.4 | 100
[10] | 0.77 | 13.7 | 15.1 | 47 | 90.7
[11] | -5.2 | 1.15 | 22.6 | 77.3 | 104
[12] | -3.82 | -7.01 | -13.8 | 99.3 | 101
[13] | -8.5 | -7.5 | 22.2 | 98.2 | 106
[14] | -6.09 | -6.23 | -4.57 | 100 | 105

Settings | drug sensitivity score
[15] | 14.8
[16] | 13.7
[17] | 11.6
[18] | 12.2
[19] | 19.3
[20] | 18.4
[21] | 14.3
[22] | 12.9
[23] | 19.4
[24] | 11.4
[25] | 17.2
[26] | 17
[27] | 21.4
[28] | 17.6

N#CCNC(=O)c1ccc(-c2ccnc(Nc3ccc(N4CCOCC4)cc3)n2)cc1 [Momelotinib] (max concentration tested 10000 nM)
percent inhibition of viability [%]
Settings | 1 nM | 10 nM | 100 nM | 1000 nM | 10000 nM
[1] | -1.5 | 4.78 | 16.6 | 72 | 96.9
[2] | -3.04 | -5.27 | 11.4 | 54.4 | 98.9
[3] | -0.29 | -0.45 | 5.77 | 38.1 | 86.3
[4] | 0.52 | -6.13 | -0.97 | 43.2 | 86.9
[5] | -4.89 | 7.75 | 12.7 | 57.3 | 73.3
[6] | -3.83 | -4.31 | -6.56 | 18.6 | 101
[7] | -6.11 | -14.1 | 3.47 | 15.8 | 14.3
[8] | -6.15 | -4.46 | 2.38 | 54.3 | 91.2
[9] | 23.1 | 10.8 | 3.39 | 52.2 | 96
[10] | -14.4 | -4.36 | 20.3 | 65.5 | 70.3
[11] | 5.39 | 5.27 | 21.2 | 79.2 | 85.8
[12] | 3.73 | 4.25 | 15.9 | 75.2 | 100
[13] | -4.28 | -2.44 | 28.4 | 79.3 | 88
[14] | -1.96 | -4.26 | 19.9 | 103 | 102

Settings | drug sensitivity score
[15] | 15.6
[16] | 12.2
[17] | 9.23
[18] | 10.2
[19] | 12.3
[20] | 8.56
[21] | 1.97
[22] | 11.5
[23] | 11.5
[24] | 14.8
[25] | 17.1
[26] | 16
[27] | 18.1
[28] | 21.2
